Results as given in patent publication US20140037583A1, “METHODS AND COMPOSITIONS SUITABLE FOR PREVENTING AND TREATING HYPERLEPTINEMIA” (priority 2011, published 2014).

Test system: Leptin mRNA in terminally differentiated canine adipocytes
Experiment: Expression of leptin mRNA in canine adipocytes treated with Equol (quantitative PCR)
Format: cell-based
Details: 24 hours, n=3
Method: Treatment: Terminally differentiated canine adipocytes were exposed to 200, 25, and 0 uM Equol for 24 hours. Cells were collected for RNA isolation.
RNA Isolation: Treatment cell samples were vortexed and homogenized using a Quiashredder (Qiagen, Valencia, Calif.) column according to manufacturer's directions. The homogenized lysate was collected and 1 equal volume of 64% ethanol was added to it. This mixture was then applied to an RNAqueous™ filter cartridge, (Ambion Inc., Austin, Tex.) 700 uL at a time, and centrifuged for one minute at 10,000 rpm. The cartridge was washed using 700 uL wash solution #1 and 500 uL wash solution #2/3 with centrifugation at 10,000 rpm for one minute for each wash. The filter cartridge was dried by centrifugation (10,000 rpm) for one minute. […] The resulting RNA was DNAse-treated and quantitated in a Beckman DU 640B spectrophotometer (Beckman Coulter, Inc., Brea, Calif.) at 260 nm. Additionally, quantity and quality were assessed using a bioanalyzer (Agilent, Santa Clara, Calif.) according to manufacturer's directions.
Quantitative PCR: All samples were run singularly against each primer/probe set to determine what standard curve(s) should be used. […] Values were normalized to cyclophilin A (PPIA) levels as determined by quantitative PCR. Inductions were calculated from each of the lowest sample's normalized value. […]

Oc1ccc([C@H]2COc3cc(O)ccc3C2)cc1 [Equol]
Leptin mRNA expression (normalized to cyclophilin A, induction relative to lowest sample) (25 uM Equol): 2.58 | Leptin mRNA expression (normalized to cyclophilin A, induction relative to lowest sample) (200 uM Equol): 1.40
